Data from BindingDB's records for doi:10.1016/j.chembiol.2005.11.011 (Cyclacel, 2006).

Molecular target: Cyclin-dependent kinase 2 (Homo sapiens, UniProt P24941)
Assay: In Vitro Inhibition
Excerpt: In vitro inhibition assay using human recombinant CDK2 and human recombinant cyclin A2.

O=[N+]([O-])c1cccc(Nc2nccc(-c3cccc(Cn4cncn4)c3)n2)c1 [N-(3-nitrophenyl)-4-[3-(1H-1,2,4-triazol-1-ylmethyl)phenyl]pyrimidin-2-amine, 6]
IC50: 250 nM
